The record followed here is BindingDB's records for doi:10.1016/j.bmcl.2006.01.061 (Institute of Genomics and Integrative Biology, 2006).

pIC50: −log10 of the molar value. Square brackets hold non-standard residues; d marks the D form. Peptide text beside a SMILES is read from it. Trp(5-OH) = N[C@@H](Cc1c[nH]c2ccc(O)cc12)C(=O)O; NMeW = CN[C@@H](Cc1c[nH]c2ccccc12)C(=O)O; Orn = NCCC[C@H](N)C(=O)O

This assay has as its target Angiotensin-converting enzyme (Bos taurus). The experiment in a line: Inhibition of ACE in bovine kidney.
On to `NCCC[C@H](NC(=O)CCc1nc2ccccc2[nH]1)C(=O)N1CCC[C@H]1C(=O)O` [BPA-Lys-Pro], for which the pIC50 – broadly, −log10 of the IC50, conventionally taken in molar units – is 5.00.

`NCCC[C@H](NC(=O)[C@@H](N)Cc1c[nH]c2ccc(O)cc12)C(=O)N1CCC[C@H]1C(=O)O` [HTP-Orn-Pro] (H-[Trp(5-OH)]-[Orn]-Pro-OH) had a negative logarithm of the IC50 (pIC50) of 5.40.

In turn, `CN[C@@H](Cc1c[nH]c2ccccc12)C(=O)N[C@@H](CCCN)C(=O)N1CCC[C@H]1C(=O)O` [MTP-Orn-Pro] (H-[NMeW]-[Orn]-Pro-OH) had a pIC50 of 5.00.
